Laboratory results as given in the supplement of paper PMC4862054.

Assays:
BT-474 [1] = conditions: 72 h
In short: (§1)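 EC50 was fitted from dose-response curves and censored at the highest concentration tested. To build those curves, breast cancer cell lines (20 µl suspension) were seeded into 384-well plates containing compound at 5 concentrations in 10-fold steps over a compound-specific 10,000-fold range and incubated for 72 h. Readouts were CellTox Green fluorescence (485/520 nm) for cell death and then CellTiter-Glo luminescence for viability, with each plate normalised to 0.1 % DMSO and a positive kill control.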

HDQ-P1 [2] = conditions: 72 h
In short: as §1

MDA-MB-468 [3] = conditions: 72 h
In short: as §1

BT-549 = experiment: normalised viability (% of control), CellTiter-Blue; higher = more viable cells (about 100 = DMSO control); conditions: incubation time: 72 h
In short: (§2)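 Vehicle (100) and a positive kill control (0) anchored the normalisation of each plate, and Z'-factor was used for quality control. Breast cancer cell lines in 20 µl suspension were incubated 72 h over compound in 5 µl medium in 384-well plates, followed by CellTiter-Blue at 560/590 nm. The value is normalised viability at a single listed concentration of the series.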

MDA-MB-453 = experiment: as above; conditions: incubation time: 72 h
In short: as §2

CAL-148 = experiment: as above; conditions: incubation time: 72 h
In short: as §2

MFM-223 = experiment: as above; conditions: incubation time: 72 h
In short: as §2

CAL-85-1 = experiment: as above; conditions: incubation time: 72 h
In short: as §2

HCC1599 = experiment: as above; conditions: incubation time: 72 h
In short: as §2

BT-474 [4] = experiment: as above; conditions: incubation time: 72 h
In short: as §2

MDA-MB-231 = experiment: as above; conditions: incubation time: 72 h
In short: as §2

HCC1143 = experiment: as above; conditions: incubation time: 72 h
In short: as §2

HDQ-P1 [5] = experiment: as above; conditions: incubation time: 72 h
In short: as §2

SK-BR-3 = experiment: as above; conditions: incubation time: 72 h
In short: as §2

Hs578T = experiment: as above; conditions: incubation time: 72 h
In short: as §2

MDA-MB-468 [6] = experiment: as above; conditions: incubation time: 72 h
In short: as §2

MDA-MB-436 = experiment: as above; conditions: incubation time: 72 h
In short: as §2

CAL-120 = experiment: as above; conditions: incubation time: 72 h
In short: as §2

CAL-51 = experiment: as above; conditions: incubation time: 72 h
In short: as §2

HCC1937 = experiment: as above; conditions: incubation time: 72 h
In short: as §2

DU-4475 = experiment: as above; conditions: incubation time: 72 h
In short: as §2

Cn1cc(C2=Nc3cc(NC(=O)C(N)C4CCCCC4)cc4c3C2=CNNC4=O)cn1 (stereo unspecified)
Conditions	EC50, CellTiter-Glo [nM]
BT-474 [1]	2290
HDQ-P1 [2]	9680
MDA-MB-468 [3]	396

normalised viability [%]
Conditions	3 nM	10 nM	30 nM	100 nM	1000 nM	10000 nM
BT-474 [4]	–	103	–	–	104	98.9
BT-549	–	80.9	–	–	37.4	18.6
CAL-51	104	–	87.2	93	–	–
CAL-85-1	89	–	78.3	90	–	–
CAL-120	–	96.5	–	–	57.2	27
CAL-148	88.3	–	93.5	94	–	–
DU-4475	89.6	–	82.9	86.3	–	–
HCC1143	–	85.5	–	–	57.2	25.6
HCC1599	–	94.6	–	–	52.8	42
HCC1937	–	98.2	–	–	55.3	22.7
HDQ-P1 [5]	104	–	102	106	–	–
Hs578T	–	122	–	–	35.1	29.5
MDA-MB-231	–	81.7	–	–	85.6	34.5
MDA-MB-436	–	102	–	–	70	32.8
MDA-MB-453	96.7	–	94.9	72.4	–	–
MDA-MB-468 [6]	–	112	–	–	19.4	10.4
MFM-223	–	86.1	–	–	57.3	62.2
SK-BR-3	–	81.8	–	–	13.8	10.8

COc1cc2c(cc1O)CC[C@@H]1[C@@H]2CC[C@]2(C)[C@@H](O)CC[C@@H]12 [2-methoxyestradiol]
Conditions	EC50, CellTiter-Glo [nM]
BT-474 [1]	573
HDQ-P1 [2]	7460
MDA-MB-468 [3]	2800

normalised viability [%]
Conditions	3 nM	10 nM	30 nM	100 nM	1000 nM	10000 nM
BT-474 [4]	–	133	–	–	64.3	48.5
BT-549	–	89.1	–	–	51.7	17.6
CAL-51	122	–	114	106	–	–
CAL-85-1	91.4	–	85.5	94.5	–	–
CAL-120	–	105	–	–	61.4	24.2
CAL-148	89.8	–	89.5	86	–	–
DU-4475	108	–	102	109	–	–
HCC1143	–	92.4	–	–	82.7	37.1
HCC1599	–	97.3	–	–	116	80.5
HCC1937	–	113	–	–	54.3	26.8
HDQ-P1 [5]	103	–	93.9	93.2	–	–
Hs578T	–	114	–	–	67.5	16.2
MDA-MB-231	–	83.9	–	–	44.8	30.5
MDA-MB-436	–	104	–	–	60.5	44.6
MDA-MB-453	114	–	87.5	96.7	–	–
MDA-MB-468 [6]	–	111	–	–	97.2	50.1
MFM-223	–	98.8	–	–	74.9	99.2
SK-BR-3	–	97.6	–	–	101	20.2

Cc1sc2c(c1C)C(c1ccc(Cl)cc1)=N[C@@H](CC(=O)OC(C)(C)C)c1nnc(C)n1-2 [(+)JQ1]
Conditions	EC50, CellTiter-Glo [nM]
BT-474 [1]	113
HDQ-P1 [2]	129
MDA-MB-468 [3]	487

normalised viability [%]
Conditions	3 nM	10 nM	30 nM	100 nM	1000 nM	10000 nM
BT-474 [4]	–	118	–	–	95.1	102
BT-549	–	108	–	–	53.8	36.9
CAL-51	100	–	96.9	104	–	–
CAL-85-1	93.2	–	82.6	80	–	–
CAL-120	–	83.2	–	–	47.7	49.2
CAL-148	95.7	–	103	97.3	–	–
DU-4475	104	–	77.6	90.1	–	–
HCC1143	–	91.1	–	–	67.6	58.7
HCC1599	–	115	–	–	58	54.6
HCC1937	–	109	–	–	62.9	55.9
HDQ-P1 [5]	102	–	113	107	–	–
Hs578T	–	100	–	–	61.4	44.8
MDA-MB-231	–	107	–	–	32.8	35.9
MDA-MB-436	–	105	–	–	86.3	99.7
MDA-MB-453	111	–	107	84.5	–	–
MDA-MB-468 [6]	–	107	–	–	71.8	52.2
MFM-223	–	99.3	–	–	54	45.4
SK-BR-3	–	117	–	–	53.9	51.8

O=C1CN2Cc3c(ccc(Cl)c3Cl)N=C2N1 [Anagrelide]
Conditions	EC50, CellTiter-Glo [nM]
BT-474 [1]	> 10000

normalised viability [%]
Conditions	3 nM	10 nM	30 nM	100 nM	1000 nM	10000 nM
BT-474 [4]	–	126	–	–	132	130
BT-549	–	88.7	–	–	89.1	99.4
CAL-51	110	–	96.5	84.3	–	–
CAL-85-1	102	–	84.7	97.1	–	–
CAL-120	–	91.3	–	–	91.9	86.2
CAL-148	96.5	–	102	103	–	–
DU-4475	89.5	–	79.5	96.1	–	–
HCC1143	–	83.5	–	–	87.8	83.2
HCC1599	–	112	–	–	93.1	89.3
HCC1937	–	95.6	–	–	82.5	77.8
HDQ-P1 [5]	116	–	95	99.2	–	–
Hs578T	–	101	–	–	90.9	88.2
MDA-MB-231	–	103	–	–	95.5	104
MDA-MB-436	–	79.2	–	–	97	99
MDA-MB-453	110	–	102	98.5	–	–
MDA-MB-468 [6]	–	106	–	–	103	111
MFM-223	–	100	–	–	99	104
SK-BR-3	–	119	–	–	110	107
